Results taken from ChEMBL document CHEMBL5523671, “ω-(5-Phenyl-2H-tetrazol-2-yl)alkyl-substituted glycine amides and related compounds as inhibitors of the amine oxidase vascular adhesion protein-1 (VAP-1)” (Bioorg Med Chem, 2024).
The source made the active and inactive calls. No cut-off for these calls is given here.

Legend:
[1] = molecular target: T1, Amine oxidase [copper-containing] 3 (Bos taurus) (UniProt Q9TTK6); assay: Inhibition of bovine plasma VAP-1 using 6-(5-Pheny1-2H-tetrazol-2-yl)hexan-1-amine as substrate at 10 uM measured after 30 mins by UV-HPLC analysis relative to control; assay type: cell-free
T1 sequence (whole entry): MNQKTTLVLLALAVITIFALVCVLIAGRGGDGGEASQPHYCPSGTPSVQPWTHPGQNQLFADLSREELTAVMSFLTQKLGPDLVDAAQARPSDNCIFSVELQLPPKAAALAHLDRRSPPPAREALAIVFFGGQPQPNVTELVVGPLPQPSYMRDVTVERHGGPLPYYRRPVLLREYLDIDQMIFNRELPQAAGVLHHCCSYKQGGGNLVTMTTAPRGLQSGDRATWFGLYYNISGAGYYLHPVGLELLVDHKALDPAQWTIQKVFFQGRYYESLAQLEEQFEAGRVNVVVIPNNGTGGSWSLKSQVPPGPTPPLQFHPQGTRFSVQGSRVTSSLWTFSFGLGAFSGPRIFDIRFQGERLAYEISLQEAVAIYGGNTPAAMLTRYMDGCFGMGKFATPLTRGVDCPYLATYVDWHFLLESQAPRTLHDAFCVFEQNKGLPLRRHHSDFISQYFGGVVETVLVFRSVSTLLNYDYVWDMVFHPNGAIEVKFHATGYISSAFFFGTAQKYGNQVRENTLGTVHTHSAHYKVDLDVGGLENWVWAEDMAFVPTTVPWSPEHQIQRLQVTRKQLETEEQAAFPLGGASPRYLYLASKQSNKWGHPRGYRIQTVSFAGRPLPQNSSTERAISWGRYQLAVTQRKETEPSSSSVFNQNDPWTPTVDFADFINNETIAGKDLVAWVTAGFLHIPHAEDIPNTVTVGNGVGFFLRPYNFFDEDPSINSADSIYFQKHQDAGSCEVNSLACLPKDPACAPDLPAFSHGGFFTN

[2] = molecular target: T1, Amine oxidase [copper-containing] 3 (Bos taurus); assay: Inhibition of bovine plasma VAP-1 using 6-(5-Pheny1-2H-tetrazol-2-yl)hexan-1-amine as substrate at 10 uM preincubated with enzyme for 15 mins followed by substrate addition measured after 30 mins by UV-HPLC analysis relative to control; assay type: cell-free; conditions: time 45.0 min
[3] = molecular target: T2, Amine oxidase [copper-containing] 3 (Bos taurus, UniProt Q9TTK6); assay: Inhibition of bovine plasma VAP-1 using 6-(5-Pheny1-2H-tetrazol-2-yl)hexan-1-amine as substrate preincubated with enzyme for 15 mins followed by substrate addition measured after 30 mins by UV-HPLC analysis; assay type: cell-free
T2 sequence (Q9TTK6 whole entry): T1 sequence (whole entry)

[4] = molecular target: T2, Amine oxidase [copper-containing] 3; assay: Inhibition of bovine plasma VAP-1 using 6-(5-Pheny1-2H-tetrazol-2-yl)hexan-1-amine as substrate measured after 30 mins by UV-HPLC analysis; assay type: cell-free
[5] = molecular target: T3, VAP-1 (amine oxidase [copper-containing] 3) (Bos taurus, UniProt Q9TTK6); assay: Stability of compound assessed as bovine plasma VAP-1 mediated drug degradation by measuring parent compound remaining at 1 uM incubated for 15 mins by HPLC-MS analysis; assay type: ADME, cell-free; conditions: cattle, bovine plasma VAP-1 (amine oxidase [copper-containing] 3), read-out: Stability
T3 sequence (Q9TTK6 whole entry): T1 sequence (whole entry)

[6] = Selectivity index, ratio of IC50 for porcine kidney DAO to IC50 for bovine plasma VAP-1
[7] = molecular target: T3, VAP-1 (amine oxidase [copper-containing] 3); assay: Stability of compound assessed as bovine plasma VAP-1 mediated drug degradation by measuring parent compound remaining at 10 uM incubated for 15 mins by HPLC-MS analysis; assay type: ADME, cell-free; conditions: cattle, bovine plasma VAP-1 (amine oxidase [copper-containing] 3), read-out: Stability
[8] = molecular target: T3, VAP-1 (amine oxidase [copper-containing] 3); assay: Stability of compound assessed as bovine plasma VAP-1 mediated drug degradation by measuring parent compound remaining at 10 uM incubated for 30 mins by HPLC-MS analysis; assay type: ADME, cell-free; conditions: cattle, bovine plasma VAP-1 (amine oxidase [copper-containing] 3), read-out: Stability
[9] = molecular target: T2, Amine oxidase [copper-containing] 3; assay: Stability of compound assessed as bovine plasma VAP-1 mediated drug degradation by measuring formation of aldehyde metabolite at 1 to 10 uM incubated for 60 to 120 mins by HPLC-MS analysis; assay type: ADME, cell-free; conditions: cattle, dose lower 1 µM, time lower 60 min, dose upper 10 µM, time upper 120 min
[10] = Selectivity index, ratio of IC50 for human plasma VAP-1 to IC50 for bovine plasma VAP-1
[11] = molecular target: T3, VAP-1 (amine oxidase [copper-containing] 3); assay: Stability of compound assessed as bovine plasma VAP-1 mediated drug degradation by measuring parent compound remaining at 10 uM incubated for 120 mins by HPLC-MS analysis; assay type: ADME, cell-free; conditions: cattle, bovine plasma VAP-1 (amine oxidase [copper-containing] 3), read-out: Stability
[12] = molecular target: T3, VAP-1 (amine oxidase [copper-containing] 3); assay: Stability of compound assessed as bovine plasma VAP-1 mediated drug degradation by measuring parent compound remaining at 1 uM incubated for 30 mins by HPLC-MS analysis; assay type: ADME, cell-free; conditions: cattle, bovine plasma VAP-1 (amine oxidase [copper-containing] 3), read-out: Stability
[13] = molecular target: T3, VAP-1 (amine oxidase [copper-containing] 3); assay: Stability of compound assessed as bovine plasma VAP-1 mediated drug degradation by measuring parent compound remaining at 1 uM incubated for 120 mins by HPLC-MS analysis; assay type: ADME, cell-free; conditions: cattle, bovine plasma VAP-1 (amine oxidase [copper-containing] 3), read-out: Stability
[14] = molecular target: T3, VAP-1 (amine oxidase [copper-containing] 3); assay: Stability of compound assessed as bovine plasma VAP-1 mediated drug degradation by measuring parent compound remaining at 1 uM incubated for 60 mins by HPLC-MS analysis; assay type: ADME, cell-free; conditions: cattle, bovine plasma VAP-1 (amine oxidase [copper-containing] 3), read-out: Stability
[15] = molecular target: T3, VAP-1 (amine oxidase [copper-containing] 3); assay: Stability of compound assessed as bovine plasma VAP-1 mediated drug degradation by measuring parent compound remaining at 10 uM incubated for 60 mins by HPLC-MS analysis; assay type: ADME, cell-free; conditions: cattle, bovine plasma VAP-1 (amine oxidase [copper-containing] 3), read-out: Stability
[16] = molecular target: T4, Amine oxidase [copper-containing] 3 (Homo sapiens, UniProt Q16853); assay: Inhibition of human plasma VAP-1 using 6-(5-Pheny1-2H-tetrazol-2-yl)hexan-1-amine as substrate preincubated with enzyme for 15 mins followed by substrate addition measured after 120 mins by UV-HPLC analysis; assay type: cell-free
T4 sequence (Q16853 whole entry): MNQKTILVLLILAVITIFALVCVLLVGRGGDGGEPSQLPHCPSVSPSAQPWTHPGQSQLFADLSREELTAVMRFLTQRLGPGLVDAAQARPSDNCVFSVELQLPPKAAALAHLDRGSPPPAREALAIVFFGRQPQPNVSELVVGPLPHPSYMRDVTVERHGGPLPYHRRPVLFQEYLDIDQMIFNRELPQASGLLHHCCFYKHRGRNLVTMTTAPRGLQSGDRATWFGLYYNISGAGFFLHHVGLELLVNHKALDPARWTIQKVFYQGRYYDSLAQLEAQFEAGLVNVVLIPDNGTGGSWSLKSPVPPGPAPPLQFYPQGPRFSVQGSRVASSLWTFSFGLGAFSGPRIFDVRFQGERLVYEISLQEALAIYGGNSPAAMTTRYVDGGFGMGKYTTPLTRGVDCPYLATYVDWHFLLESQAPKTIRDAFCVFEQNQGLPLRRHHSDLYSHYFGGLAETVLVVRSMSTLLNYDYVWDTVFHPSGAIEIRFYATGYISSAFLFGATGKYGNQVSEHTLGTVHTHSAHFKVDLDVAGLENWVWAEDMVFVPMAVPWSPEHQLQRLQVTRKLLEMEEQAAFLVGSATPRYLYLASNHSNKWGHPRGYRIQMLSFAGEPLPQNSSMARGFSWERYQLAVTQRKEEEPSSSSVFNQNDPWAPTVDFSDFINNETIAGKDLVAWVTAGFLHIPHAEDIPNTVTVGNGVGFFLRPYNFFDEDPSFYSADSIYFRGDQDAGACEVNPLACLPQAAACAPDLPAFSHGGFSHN

Row | SMILES | inhibition [1] | inhibition [2] | IC50 [3] [µM] | IC50 [4] [µM] | other results
1 | NCC(=O)NCCCCCCn1nnc(-c2cccnc2)n1 | 44% | 45% | > 10 | > 10 | –
2 | Cl.N#Cc1ccc(-c2nnn(Cc3cccc(CNC(=O)CN)c3)n2)cc1 | – | – | – | – | remaining at 0.25 h, 1 µM [5]: 74%; Ratio IC50 [6]: 50; remaining at 0.25 h, 10 µM [7]: 93%; remaining at 0.5 h, 10 µM [8]: 95%; Stability [9]: Stable; Ratio IC50 [10]: 2; remaining at 2 h, 10 µM [11]: 81%; remaining at 0.5 h, 1 µM [12]: 49%; remaining at 2 h, 1 µM [13]: < 5%; remaining at 1 h, 1 µM [14]: < 5%
3 | CN(Cc1cccc(Cn2nnc(-c3ccccc3)n2)c1)C(=O)CN | 43% | 49% | > 10 | > 10 | remaining at 0.25 h, 10 µM [7]: 95%; remaining at 0.5 h, 10 µM [8]: 85%; IC50 [16]: 20 µM; Ratio IC50 [10]: 2; remaining at 2 h, 10 µM [11]: 45%; remaining at 1 h, 10 µM [15]: 65%
4 | NCC(=O)NCCCCn1nnc(-c2ccccc2)n1 | 14% | 29% | > 10 | > 10 | –
5 | NCC(=O)NCCCn1nnc(-c2ccccc2)n1 | 13% | 29% | > 10 | > 10 | –
6 | NCC(=O)NCCCCCCn1nnc(-c2ccccn2)n1 | 40% | 49% | > 10 | > 10 | –
7 | NCC(=O)NC1CCC(CCn2nnc(-c3ccccc3)n2)CC1 (stereo not drawn) | inactive | inactive | – | – | –
8 | NCC(=O)N1CCC(CCCn2nnc(-c3ccccc3)n2)CC1 | 19% | 18% | > 10 | > 10 | –
9 | NCCCCCCn1nnc(-c2ccccc2)n1 | – | – | – | – | remaining at 0.25 h, 10 µM [7]: < 5%; remaining at 0.5 h, 10 µM [8]: < 5%; remaining at 2 h, 10 µM [11]: < 5%; remaining at 1 h, 10 µM [15]: < 5%

Continued, in another order:

Row | inhibition [1] | inhibition [2] | IC50 [3] [µM] | IC50 [4] [µM] | SMILES | other results
10 | – | – | 7.9 | 6.9 | NCC(=O)NCCCCCCn1cc(-c2ccccc2)cn1 | –
11 | – | – | 5.9 | 9.1 | NCC(=O)NCc1ccc(Cn2nnc(-c3ccccc3)n2)cc1 | remaining at 0.25 h, 10 µM [7]: 89%; remaining at 0.5 h, 10 µM [8]: 82%; remaining at 2 h, 10 µM [11]: 45%; remaining at 1 h, 10 µM [15]: 69%
12 | – | – | 7.7 | 5.6 | NCC(=O)NCCCCCCn1nnc(-c2cccs2)n1 | –
13 | – | – | 7 | 6.2 | NCC(=O)NCCCCCCn1ncc(-c2ccccc2)n1 | –
14 | – | – | 0.16 | 0.37 | Cl.NCC(=O)NCc1cccc(Cn2nnc(-c3ccccc3)n2)c1 | remaining at 0.25 h, 1 µM [5]: 73%; Ratio IC50 [6]: 50; remaining at 0.25 h, 10 µM [7]: > 95%; remaining at 0.5 h, 10 µM [8]: > 95%; Stability [9]: Stable; IC50 [16]: 2.1 µM; Ratio IC50 [10]: 2; remaining at 2 h, 10 µM [11]: 84%; remaining at 1 h, 10 µM [15]: 93%; remaining at 0.5 h, 1 µM [12]: 47%; remaining at 2 h, 1 µM [13]: < 5%; remaining at 1 h, 1 µM [14]: < 5%
15 | – | – | 6.1 | 7.3 | COC(=O)c1ccc(-c2nnn(CCCCCCNC(=O)CN)n2)cc1 | –
16 | – | – | 6.8 | 6.3 | NCC(=O)NCCCCCCn1nnc(-c2ccsc2)n1 | –
17 | – | – | 5.2 | 4 | NCC(=O)NCCCCCCn1nnc(-c2ccc(C(N)=O)cc2)n1 | –
